Legend:
[1] = DRUGMATRIX: beta-Lactamase enzyme inhibition (substrate: Nitrocefin); parameters: species or system Bacillus cereus; settings: Not Active = under 50% inhibition at 10 µM
[2] = biological target: Melanocortin receptor 3 (Homo sapiens, UniProt P41968); assay type: cell membranes, HEK293, Membrane; settings: hek293; also: in other assays of this panel Not Active means under 50% inhibition at 10 µM
[3] = DRUGMATRIX: Calcium Channel Type L, Phenylalkylamine radioligand binding (ligand: [3H] (-)-Desmethoxyverapamil (D-888)); assay type: cell membranes, Rattus norvegicus, Wistar, Brain, Membrane; settings: Not Active = under 50% inhibition at 10 µM
[4] = biological target: Sigma non-opioid intracellular receptor 1 (Homo sapiens, UniProt Q99720); test: DRUGMATRIX: Sigma1 radioligand binding (ligand: [3H] Haloperidol); assay type: cell membranes, Jurkat, Membrane; settings: jurkat; Not Active = under 50% inhibition at 10 µM
Sequence of Sigma non-opioid intracellular receptor 1 (Q99720 whole entry): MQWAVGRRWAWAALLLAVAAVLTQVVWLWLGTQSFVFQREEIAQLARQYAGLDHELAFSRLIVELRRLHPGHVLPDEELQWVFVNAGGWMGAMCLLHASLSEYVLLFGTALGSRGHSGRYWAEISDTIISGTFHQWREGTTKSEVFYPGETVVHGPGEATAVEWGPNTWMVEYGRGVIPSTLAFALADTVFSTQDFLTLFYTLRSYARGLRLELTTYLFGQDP

[5] = biological target: T1, C-X-C chemokine receptor type 1 (Homo sapiens, UniProt P25024); also: in other assays of this panel Not Active means under 50% inhibition at 10 µM
T1 sequence (P25024 whole entry): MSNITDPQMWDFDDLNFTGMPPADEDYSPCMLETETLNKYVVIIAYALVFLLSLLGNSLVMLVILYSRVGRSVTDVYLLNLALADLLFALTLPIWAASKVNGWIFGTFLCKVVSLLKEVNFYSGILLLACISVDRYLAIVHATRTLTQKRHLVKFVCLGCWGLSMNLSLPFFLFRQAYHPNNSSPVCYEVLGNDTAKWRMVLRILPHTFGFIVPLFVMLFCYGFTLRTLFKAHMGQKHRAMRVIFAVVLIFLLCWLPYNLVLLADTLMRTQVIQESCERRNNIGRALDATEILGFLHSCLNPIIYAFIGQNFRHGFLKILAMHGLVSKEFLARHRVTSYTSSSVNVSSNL

[6] = DRUGMATRIX: Sodium/nucleoside co-transporter radioligand binding (ligand: nitrobenzylthioinosine); assay type: cell membranes, Cavia porcellus, Dunkin-Hartley, Cerebral cortex, Membrane; settings: Not Active = under 50% inhibition at 10 µM
[7] = DRUGMATRIX: Calcium Channel Type L, Dihydropyridine radioligand binding (ligand: [3H] Nitrendipine); assay type: cell membranes, Rattus norvegicus, Wistar, Cerebral cortex, Membrane; settings: Not Active = under 50% inhibition at 10 µM
[8] = biological target: T2, Caspase-1 (Homo sapiens, UniProt P29466); parameters: species or system Escherichia coli;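 also: Caspase-1 enzyme inhibition assay with a peptide substrate; in other assays of this panel Not Active means under 50% inhibition at 10 µM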
T2 sequence (P29466 whole entry): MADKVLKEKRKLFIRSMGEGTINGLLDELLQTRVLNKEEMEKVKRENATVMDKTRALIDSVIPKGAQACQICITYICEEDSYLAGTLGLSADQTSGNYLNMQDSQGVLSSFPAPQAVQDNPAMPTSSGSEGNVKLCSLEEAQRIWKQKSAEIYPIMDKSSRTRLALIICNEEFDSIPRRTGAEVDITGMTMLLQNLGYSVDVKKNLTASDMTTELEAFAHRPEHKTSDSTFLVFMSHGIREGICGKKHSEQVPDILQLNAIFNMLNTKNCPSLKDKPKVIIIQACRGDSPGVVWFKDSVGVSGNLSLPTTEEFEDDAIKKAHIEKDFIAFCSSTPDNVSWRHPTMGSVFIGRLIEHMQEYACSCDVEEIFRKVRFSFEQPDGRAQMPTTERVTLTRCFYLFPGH

Sequence of Melanocortin receptor 3 (P41968 whole entry): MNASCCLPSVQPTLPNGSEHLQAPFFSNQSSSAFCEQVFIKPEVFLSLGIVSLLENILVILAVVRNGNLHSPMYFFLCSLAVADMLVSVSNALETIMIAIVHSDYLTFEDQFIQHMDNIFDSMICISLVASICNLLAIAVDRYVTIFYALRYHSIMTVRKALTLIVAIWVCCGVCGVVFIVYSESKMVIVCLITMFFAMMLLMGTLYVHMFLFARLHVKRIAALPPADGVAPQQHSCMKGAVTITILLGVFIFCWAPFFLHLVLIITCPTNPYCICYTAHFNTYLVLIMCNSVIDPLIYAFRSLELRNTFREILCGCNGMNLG

O=C(c1ccccc1C(F)(F)F)N1CCC(Cc2ccccc2)CC1
Not Active: IC50 [1] | Ki [1] | IC50 [2] | IC50 [3] | Ki [3] | IC50 [4] | IC50 [5] | IC50 [6] | Ki [6] | IC50 [7] | Ki [7] | IC50 [8]

O=C/C=C/c1ccccc1
Not Active: IC50 [1] | Ki [1] | IC50 [2] | IC50 [3] | Ki [3] | IC50 [4] | IC50 [5] | IC50 [6] | Ki [6] | IC50 [7] | Ki [7] | IC50 [8]

Nc1ccc2c3c(cccc13)C(=O)NC2=O
Not Active: IC50 [1] | Ki [1] | IC50 [2] | IC50 [3] | Ki [3] | IC50 [4] | IC50 [5] | IC50 [6] | Ki [6] | IC50 [7] | Ki [7] | IC50 [8]

COc1ccc(C(=O)N2CCCC2=O)cc1
Not Active: IC50 [1] | Ki [1] | IC50 [2] | IC50 [3] | Ki [3] | IC50 [4] | IC50 [5] | IC50 [6] | Ki [6] | IC50 [7] | Ki [7] | IC50 [8]

O=c1cnn([C@@H]2O[C@H](CO)[C@@H](O)[C@H]2O)c(=O)[nH]1 [6-AZAURIDINE]
Not Active: IC50 [1] | Ki [1] | IC50 [2] | IC50 [3] | Ki [3] | IC50 [4] | IC50 [5] | IC50 [6] | Ki [6] | IC50 [7] | Ki [7] | IC50 [8]

CC[C@H](C)[C@H]1O[C@]2(C=C[C@@H]1C)C[C@@H]1C[C@@H](C/C=C(\C)[C@@H](O[C@H]3C[C@H](OC)[C@@H](O[C@H]4C[C@H](OC)[C@@H](O)[C@H](C)O4)[C@H](C)O3)[C@@H](C)/C=C/C=C3\CO[C@@H]4[C@H](O)C(C)=C[C@@H](C(=O)O1)[C@]34O)O2.CO[C@H]1C[C@H](O[C@H]2[C@H](C)O[C@@H](O[C@@H]3/C(C)=C/C[C@@H]4C[C@@H](C[C@]5(C=C[C@H](C)[C@@H](C(C)C)O5)O4)OC(=O)[C@@H]4C=C(C)[C@@H](O)[C@H]5OC/C(=C\C=C\[C@@H]3C)[C@]54O)C[C@@H]2OC)O[C@@H](C)[C@@H]1O [ABAMECTIN]
Not Active: IC50 [1] | Ki [1] | IC50 [2] | IC50 [3] | Ki [3] | IC50 [4] | IC50 [5] | IC50 [6] | Ki [6] | IC50 [7] | Ki [7] | IC50 [8]

NCCCC(O)(P(=O)(O)O)P(=O)(O)O [ALENDRONIC ACID]
Not Active: IC50 [1] | Ki [1] | IC50 [2] | IC50 [3] | Ki [3] | IC50 [4] | IC50 [5] | IC50 [6] | Ki [6] | IC50 [7] | Ki [7] | IC50 [8]

Cc1nnc2n1-c1ccc(Cl)cc1C(c1ccccc1)=NC2 [ALPRAZOLAM]
Not Active: IC50 [1] | Ki [1] | IC50 [2] | IC50 [3] | Ki [3] | IC50 [4] | IC50 [5] | IC50 [6] | Ki [6] | IC50 [7] | Ki [7] | IC50 [8]

CN1[C@@H]2CC[C@H]1C[C@@H](OC(=O)C(CO)c1ccccc1)C2 (stereo partly specified) [ATROPINE]
Not Active: IC50 [1] | Ki [1] | IC50 [2] | IC50 [4] | IC50 [5] | IC50 [6] | Ki [6] | IC50 [7] | Ki [7] | IC50 [8]

Reference: ChEMBL document CHEMBL1909046, “DrugMatrix in vitro pharmacology data”
